Assay results published in PubChem BioAssay (NCI).
Values joined by “and” are separate entries in the source; they are usually repeats but may differ in a detail not shown here. Equal values may be shown once.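 All cell lines were grown in 96-well plates and treated with compound for 48 hours. Abbreviation: GI50, concentration required for 50% inhibition of growth. The concentration for full growth arrest is given as TGI.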

Tests used:
Experiment in all cases: NCI-60 cell line screen, 48 h
LXFL 529 NSCLC = test system: LXFL 529 NSCLC
SF-295 CNS = test system: SF-295 CNS
HCC-2998 colon = test system: HCC-2998 colon
OVCAR-5 ovarian = test system: OVCAR-5 ovarian
MOLT-4 leukemia = test system: MOLT-4 leukemia
M19-MEL melanoma = test system: M19-MEL melanoma
SN12C renal = test system: SN12C renal
UACC-257 melanoma = test system: UACC-257 melanoma
LOX IMVI melanoma = test system: LOX IMVI melanoma
HCT-116 colon = test system: HCT-116 colon
HOP-62 NSCLC = test system: HOP-62 NSCLC
CCRF-CEM leukemia = test system: CCRF-CEM leukemia
HOP-92 NSCLC = test system: HOP-92 NSCLC
NCI/ADR-RES ovarian = test system: NCI/ADR-RES ovarian
PC-3 prostate = test system: PC-3 prostate
MDA-MB-435 = test system: MDA-MB-435

| Structure (SMILES) | TGI (LXFL 529 NSCLC) [µM] | TGI (SF-295 CNS) [µM] | TGI (HCC-2998 colon) | TGI (OVCAR-5 ovarian) [µM] | TGI (MOLT-4 leukemia) [µM] | TGI (M19-MEL melanoma) [µM] | TGI (SN12C renal) [µM] | TGI (UACC-257 melanoma) [µM] | TGI (LOX IMVI melanoma) [µM] | TGI (HCT-116 colon) [µM] | TGI (HOP-62 NSCLC) [µM] | TGI (CCRF-CEM leukemia) [µM] | TGI (HOP-92 NSCLC) [µM] | TGI (NCI/ADR-RES ovarian) [µM] | TGI (PC-3 prostate) [µM] | TGI (MDA-MB-435) | GI50 (NCI/ADR-RES ovarian) [µM] | GI50 (SF-295 CNS) [µM] | GI50 (MDA-MB-435) [µM] |
| --- | --- | --- | --- | --- | --- | --- | --- | --- | --- | --- | --- | --- | --- | --- | --- | --- | --- | --- | --- |
| CCOC(=O)[C@H]1Nc2c(cccc2[N+](=O)[O-])C2c3ccccc3CC21 (stereo partly specified) | > 100 | > 100 | > 100 µM | > 100 | > 100 | > 100 | > 100 | 98.4 | > 100 | > 100 | > 100 |  |  |  |  |  |  |  |  |
| Clc1cccc(C2SCc3nc4ccccc4n32)c1 (stereo unspecified) | > 100 | > 100 |  | 95.6 | > 100 | 58.4 | 28.6 |  | 30.8 |  | 55.9 | > 100 | 30.4 |  |  |  |  |  |  |
| Cc1cc(C)c(S(=O)(=O)N(CCCN)OCCCN)c(C)c1 |  | > 100 | > 100 µM | > 100 | > 100 |  | > 100 | > 100 | > 100 | > 100 | > 100 | > 100 | > 100 | > 100 | > 100 | > 100 µM |  |  |  |
| Clc1ccc(-c2nnc(-c3nsc4ccccc34)o2)cc1 | > 100 |  | 93.7 µM | > 100 |  | > 100 | > 100 | > 100 | > 100 | 42.9 | 33.6 |  | 46.2 |  |  |  |  |  |  |
| Fc1ccc(C(OCCN2CC3CC2CN3)c2ccc(F)cc2)cc1 (stereo unspecified) |  | > 100 | 30.4 µM |  | > 100 |  |  | 36.6 | > 100 |  | > 100 | > 100 | > 100 | > 100 | > 100 | 53.8 µM |  |  |  |
| CC(=O)Nc1cc(/C=C\C(=O)N2CC(CCl)c3c2cc(N)c2ccccc32)n(C)n1 (stereo unspecified) |  |  | 0.0733 µM and 0.0826 µM |  | 0.0357 |  |  | 0.0394 |  |  |  | 0.012 | > 100 |  | > 100 | 0.0399 µM and 0.0497 µM | 0.103 | 0.0426 | 0.0131 |
